Data: US20100190768A1, “NOVEL FUSED PYROLE DERIVATIVE” (Dainippon Sumitomo Pharma Co., Ltd., priority 2005, published 2010)
Read-outs that look alike come from different tables or passages of the source.

Tests used:
[1] = tested on: H4-III-E cells; assay: TAT (tyrosine aminotransferase) assay; assay type: cell-based; details: for Agonistic activity of 10 μM test compound / activation at 10 µM: 10 μM test compound alone, relative to maximum Dex-induced TAT activity (100%); for Antagonistic activity of 10 μM test compound: 10 μM test compound together with 0.005 μM dexamethasone, inhibitory ratio against TAT activity increase by Dex; for activation at 10 µM: read-out: Agonistic activity of 10 μM test compound
Experimental: H4-III-E cells, which had been continuously cultured in α-MEM medium A (supplemented with 10% inactivated FBS, 50 μM 2-mercapto-ethanol), were suspended in α-MEM medium A or α-MEM medium B (supplemented with 10% inactivated FBS, 50 μM 2-mercapto-ethanol, but without phenol red), and the cell suspension was seeded to a 96-well plate in an amount of 2×10^4 cells/100 μl/well, and the cells were cultured overnight. The supernatant in the medium was removed, and a test compound (100 μl, diluted with α-MEM medium A or α-MEM medium B) was added, and the cells were further cultured overnight. In order to measure the agonistic activity, a test compound was added alone, while in order to measure the antagonistic activity, a test compound was added simultaneously together with 0.005 μM dexamethasone and evaluated the extent of the inhibitory effect of said test compound against the TAT activity-inducing activity by dexamethasone.
The culture supernatant in the plate was removed by suction, and a cell lysate (20 μL; 1% NP-40, 0.2% Triton X-100, 0.25% DOC, 0.1% SDS, 1 mM EGTA, 150 mM NaCl, Tris (pH7.4), Protease inhibitor cocktail [2.5 mg/ml aprotinin, 2.5 mg/ml leupeptin, 2.5 mg/ml soybean trypsin inhibitor]) was added, and further thereto was added a TAT reaction reagent (150 μL; 10 N KOH, 0.125 M KH2PO4, 0.5 M α-ketoglutarate, 5 mM Pyridoxal-5′ phosphate, L-tyrosine), and the mixture was reacted at 37° C. for 15 minutes. Further, a 10N KOH (20 μL) was added thereto, and the mixture was reacted at 37° C. for 30 minutes, and the absorbance at 331 nm was measured by a microplate reader (SPECTRA MAX 250).
From the mean absorbance in the wells to which a test compound was added, the mean absorbance in the wells to which a compound and a TAT reaction solution were not added was subtracted.
Agonistic activity (%)=100×[(absorbance of the drug-treated group)−(absorbance of the group without TAT reaction reagent)]/[(absorbance of Dex-treated group)−(absorbance of the group without TAT reaction reagent)]
On the other hand, the antagonistic activity was calculated as follows.
Antagonistic activity (%)=Inhibitory ratio (%) against TAT activity increase by Dex=100−100×[(absorbance of the drug-treated group)−(absorbance of the group without a drug)]/[(absorbance of Dex-treated group)−(absorbance of the group without a drug)]
With regard to the agonistic activity and the antagonistic activity, the results of 10% or more were expressed as O, while the results of less than 10% were expressed as X.

[2] = target: T1, human GRα protein (Homo sapiens, UniProt P04150); assay: Binding inhibitory assay (displacement of 3H-dexamethasone from the cytoplasm fraction of baculovirus-infected insect cells); details: for inhibition at 0.1 µM: read-out: Binding Inhibitory ratio (%) of 100 nM of test compound
T1 construct: made in house; host or cells: insect cells infected with baculovirus; cytoplasm fraction used
T1 sequence (P04150 1-777): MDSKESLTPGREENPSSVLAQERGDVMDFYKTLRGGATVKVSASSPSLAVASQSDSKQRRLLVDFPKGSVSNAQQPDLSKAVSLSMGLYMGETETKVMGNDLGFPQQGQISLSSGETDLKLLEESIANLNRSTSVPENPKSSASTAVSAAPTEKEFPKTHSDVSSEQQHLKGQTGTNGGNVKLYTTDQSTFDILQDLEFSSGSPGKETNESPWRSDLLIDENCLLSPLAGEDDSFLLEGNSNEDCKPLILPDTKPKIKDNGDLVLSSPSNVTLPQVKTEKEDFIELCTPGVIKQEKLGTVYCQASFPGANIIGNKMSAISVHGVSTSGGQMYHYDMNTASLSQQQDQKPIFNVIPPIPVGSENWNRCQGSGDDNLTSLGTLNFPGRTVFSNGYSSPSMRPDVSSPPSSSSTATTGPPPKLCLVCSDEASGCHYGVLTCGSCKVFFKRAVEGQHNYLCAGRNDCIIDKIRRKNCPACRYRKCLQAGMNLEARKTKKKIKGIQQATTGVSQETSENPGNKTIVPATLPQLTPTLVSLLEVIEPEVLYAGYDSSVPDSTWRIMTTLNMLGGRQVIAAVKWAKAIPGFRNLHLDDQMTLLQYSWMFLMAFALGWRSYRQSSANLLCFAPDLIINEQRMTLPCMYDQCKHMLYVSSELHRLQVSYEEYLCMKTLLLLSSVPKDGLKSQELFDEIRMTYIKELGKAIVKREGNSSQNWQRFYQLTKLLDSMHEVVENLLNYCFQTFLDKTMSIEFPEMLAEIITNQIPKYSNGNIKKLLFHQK
Experimental: Insect cells, which had been infected with baculovirus for expressing human GRα protein, were suspended in an approximately equal volume of a binding buffer (10 mM Tris-Cl, 1.5 mM EDTA, 10% glycerol, 5 mM DTT, 20 mM sodium molybdate, pH 7.6). The mixture was rapidly frozen with liquid nitrogen, and then melted at room temperature. This cycle was repeated totally twice in order to break the cell membrane. The mixture was ultracentrifuged under 100,000 g at 4° C. for one hour to give the supernatant, which was the cytoplasm fraction containing human GRα protein.
A polypropylene 96-well plate (manufactured by Costar Corporation, etc.) was placed on ice, and DMSO or a test compound (each 1 μl) was put into each well. A 10 nM ^3H-Dex solution (50 μl; tritiated dexamethasone; manufactured by Amersham) in the binding buffer, and a GR protein solution, i.e., a solution by diluting the above cytoplasm fraction with the binding buffer (50 μl) were added to each well, and the plate was lightly shaken with a plate mixer, and then left to stand at 4° C. for 16 to 20 hours (the final concentration of DMSO: 1%).
A 5% solution of dextran-coated active carbon (manufactured by Sigma) suspended in the binding buffer (50 μl) was put into each well, and the plate was lightly shaken with a plate mixer for 30 seconds. Then, the plate was centrifuged at 2500 rpm at 4° C. for 5 minutes, and the ^3H count in the supernatant (50 μl) was measured by a TopCount (manufactured by Perkin-Elmer Corporation). Each test compound was tested twice.
The binding activity was calculated as follows. The mean ^3H count in the presence of dexamethason (Dex) 10 μM was considered as NSB (non-specific binding), and the binding inhibitory ratio in each well was calculated by the following equation.
Binding Inhibitory Ratio (%)=100×{1−(cpm value of each well−NSB)/(mean cpm value of DMSO-well−NSB)}
(cpm means count per minute)
The mean binding inhibitory ratio of each well was calculated by the above equation to give a binding inhibitory ratio of each test compound.

[3] = 100 nM test compound, 3H-Dex, NSB with 10 μM dexamethasone

inhibition at 0.1 µM [2, 3] | Compound | Agonistic activity of 10 μM test compound [1] | Antagonistic activity of 10 μM test compound [1] | activation at 10 µM [1] | inhibition at 0.1 µM [2] | Binding Inhibitory ratio (%) of test compound (1 μM) ([2]; 1 μM test compound, 3H-Dex, NSB with 10 μM dexamethasone)
99% | O=C(O)CCc1ccc(OC2CCN(CC(O)(c3cn(Cc4ccccc4)c4cc([N+](=O)[O-])ccc34)C(F)(F)F)CC2)cc1 (stereo not drawn) [Example 182, 3-[4-({1-[2-(1-Benzyl-6-nitro-1H-indol-3-yl)-3,3,3-trifluoro-2-hydroxypropyl]-piperidin-4-yl}oxy)phenyl]propanoic acid] | ◯ | ◯ |  |  | 
 | CCOC(=O)C(O)(c1cn(Cc2ccccc2)c2cc([N+](=O)[O-])ccc12)C(F)(F)F (stereo not drawn) [Example 2, Ethyl 2-(1-benzyl-6-nitro-1H-indol-3-yl)-3,3,3-trifluoro-2-hydroxypropanoate] |  | ◯ | < 10% | 87% | 
96% | O=[N+]([O-])c1ccc2c(C(O)(CN3CCN(c4ccccc4)CC3)C(F)(F)F)cn(Cc3ccccc3)c2c1 (stereo not drawn) [Example 75, 2-(1-Benzyl-6-nitro-1H-indol-3-yl)-1,1,1-trifluoro-3-(4-phenylpiperazin-1-yl)propan-2-ol] | ◯ | ◯ |  |  | 
92% | O=[N+]([O-])c1ccc2c(C(O)(CNCc3ccccc3)C(F)(F)F)cn(Cc3ccccc3)c2c1 (stereo not drawn) [Example 137, 3-(Benzylamino)-2-(1-benzyl-6-nitro-1H-indol-3-yl)-1,1,1-trifluoropropan-2-ol] | ◯ | ◯ |  |  | 
82% | O=[N+]([O-])c1ccc2c(C(O)(CN3CCC(Nc4ccccc4)CC3)C(F)(F)F)cn(Cc3ccccc3)c2c1 (stereo not drawn) [Example 185, 3-(4-Anilinopiperidin-1-yl)-2-(1-benzyl-6-nitro-1H-indol-3-yl)-1,1,1-trifluoropropan-2-ol] |  | ◯ | < 10% |  | 
80% | O=[N+]([O-])c1ccc2c(C(O)(CNCC3CCCO3)C(F)(F)F)cn(Cc3ccccc3)c2c1 (stereo not drawn) [Example 140, 2-(1-Benzyl-6-nitro-1H-indol-3-yl)-1,1,1-trifluoro-3-[(tetrahydrofuran-2-yl-methyl)amino]propan-2-ol] |  | ◯ | < 10% |  | 
98% | C=CCC(O)(c1cn(Cc2ccccc2)c2cc([N+](=O)[O-])ccc12)C(F)(F)F (stereo not drawn) [Example 8, 2-(1-Benzyl-6-nitro-1H-indol-3-yl)-1,1,1-trifluoropent-4-en-2-ol] |  | ◯ | < 10% |  | 
99% | COc1cc(CC(=O)O)ccc1OC1CCN(CC(O)(c2cn(Cc3ccccc3)c3cc([N+](=O)[O-])ccc23)C(F)(F)F)CC1 (stereo not drawn) [Example 201, [4-({1-[2-(1-Benzyl-6-nitro-1H-indol-3-yl)-3,3,3-trifluoro-2-hydroxypropyl]-piperidin-4-yl}oxy)-3-methoxyphenyl]acetic acid] | ◯ | ◯ |  |  | 
94% | O=C(c1cccnc1)C1CCN(CC(O)(c2cn(Cc3ccccc3)c3cc([N+](=O)[O-])ccc23)C(F)(F)F)CC1 (stereo not drawn) [Example 197, {1-[2-(1-Benzyl-6-nitro-1H-indol-3-yl)-3,3,3-trifluoro-2-hydroxypropyl]piperidin-4-yl}(pyridin-3-yl)methanone] | ◯ | ◯ |  |  | 
59% | CN(C(=O)C1CCN(CC(O)(c2cn(Cc3ccccc3)c3cc([N+](=O)[O-])ccc23)C(F)(F)F)CC1)c1ccccc1 (stereo not drawn) [Example 95, 1-[2-(1-Benzyl-6-nitro-1H-indol-3-yl)-3,3,3-trifluoro-2-hydroxypropyl]-N-methyl-N-phenylpiperidine-4-carboxamide] |  | ◯ | < 10% |  | 
94% | CN1CCCN(C(=O)c2ccc(OC3CCN(CC(O)(c4cn(Cc5ccccc5)c5cc([N+](=O)[O-])ccc45)C(F)(F)F)CC3)cc2)CC1 (stereo not drawn) [Example 203, 2-(1-Benzyl-6-nitro-1H-indol-3-yl)-1,1,1-trifluoro-3-(4-{4-[(4-methyl-1,4-diazepan-1-yl)carbonyl]phenoxy}piperidin-1-yl)propan-2-ol] | ◯ | ◯ |  |  | 
 | CCOC(=O)C(O)(c1cn(Cc2ccccc2)c2c([N+](=O)[O-])cccc12)C(F)(F)F (stereo not drawn) [Example 21, Ethyl 2-(1-benzyl-7-nitro-1H-indol-3-yl)-3,3,3-trifluoro-2-hydroxypropanoate] |  | ◯ | < 10% |  | 79%
72% | O=[N+]([O-])c1ccc2c(C(O)(CN3CCC4(CC3)CS(=O)(=O)c3ccccc3O4)C(F)(F)F)cn(Cc3ccccc3)c2c1 (stereo not drawn) [Example 123, 2-(1-Benzyl-6-nitro-1H-indol-3-yl)-3-(4,4-dioxido-1′H-spiro[1,4-benzoxathiine-2,4′-piperidin]-1′-yl)-1,1,1-trifluoropropan-2-ol] |  | ◯ | < 10% |  | 
95% | O=C(O)c1ccc(OC2CCN(CC(O)(c3cn(Cc4ccccc4)c4cc([N+](=O)[O-])ccc34)C(F)(F)F)CC2)cc1 (stereo not drawn) [Example 178, 4-({1-[2-(1-Benzyl-6-nitro-1H-indol-3-yl)-3,3,3-trifluoro-2-hydroxypropyl]-piperidin-4-yl}oxy)benzoic acid] | ◯ | ◯ |  |  | 
